Data from US11339193B2, “CDP protein secretion inhibitors” (KEZAR LIFE SCIENCES, priority 2018, dated 2022).
Peptide text beside a SMILES is read from it.

Experiments:
Assay type in all cases: cell-based
[1] = system: PD1-ss+10aa/Gaussia Luciferase; assay: Dox induced PD1-ss-Gluc assay; details: Flp-In 293 T-REx cells, doxycycline, 24 hours; read-out: PD1ss Gluc IC50
How it was run: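 Stable Flp-In 293 T-REx line expressing doxycycline-inducible Gaussia luciferase fused to the PD1 signal sequence plus 10 amino acids. Cells plated the day before, then exposed to compound dilutions in DMSO/media containing doxycycline at 37 °C, 5% CO2.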

[2] = system: TNFα-FL/Gaussia Luciferase; assay: Dox induced TNFα-FL-Gluc assay; details: Flp-In 293 T-REx cells, doxycycline, 24 hours; read-out: TNFa FL Gluc IC50
How it was run: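 Stable Flp-In 293 T-REx line expressing full-length TNFα (aa 1-233) fused at its C-terminus to Gaussia luciferase under doxycycline-inducible control. Cells plated the day before, then given compound dilutions in DMSO/media containing doxycycline and incubated at 37 °C, 5% CO2.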

[3] = system: NCI-H929 multiple myeloma cell line; assay: H929 assay (cell viability, Celltiter-Glo); details: Homo sapiens, NCI-H929; 48 hours, cell viability; read-out: H929 EC50
How it was run: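 Cells plated in RPMI 1640 with 10% FBS and 2 mM glutamine, treated with compound dilutions in DMSO/media. Incubation 48 h at 37° C, 5% CO2. Viability from luciferase luminescence signal.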

[4] = system: Prl-ss+10aa/Gaussia Luciferase; assay: Prl-ss-Gluc assay (constitutively active or 24 hr Dox inducible); details: Flp-In 293 T-REx cells, 24 hours; read-out: Prl IC50
How it was run: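 Stable Flp-In 293 T-REx lines express Prl signal sequence+10aa fused to Gaussia luciferase, either constitutively (pcDNA5/FRT) or under the T-REx promoter (pcDNA5/FRT/TO). Cells plated the day before; compounds in DMSO/media (with doxycycline for the inducible line, 24 h) incubated at 37 °C, 5% CO2.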

[5] = system: VCAMss+10aa/Gaussia Luciferase; assay: VCAM-ss-Gluc assay (constitutively active or Dox induced); details: Flp-In 293 T-REx cells, 24 hours
How it was run: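 Stable cell lines secreting a VCAM signal sequence+10aa/Gaussia luciferase fusion, expressed either constitutively or under T-REx doxycycline control. Cells plated the day before; compound dilutions in DMSO/media (with doxycycline for the induced line) added and incubated at 37° C, 5% CO2.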

HER3ss-Gluc = assay: HER3ss assay; details: HEK-293T T-rex cells, transient transfection, doxycycline, 24 h; read-out: HER3 ss IC50
How it was run: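 HEK-293T T-REx cells were transiently transfected with HER3 signal sequence (plus four mature-domain residues) fused upstream of mature Gaussia luciferase. Cells were induced with doxycycline (1 μg/ml) and exposed to increasing compound concentrations for 24 h, then secreted luciferase in the conditioned medium was read by luminescence.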

[6] = system: BT474 breast tumor cell line; assay: BT474 assay (Alamar blue); details: Homo sapiens, BT-474, 72 h
How it was run: (§1)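 For both lines, 5000 cells/well were exposed to compound or a 1% DMSO-medium control for 72 h unless otherwise specified. Signal was normalized to the DMSO control.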

[7] = system: JJN3 plasma cell leukemia cell line; assay: JJN-3 assay (Alamar blue); details: Homo sapiens, 72 h
How it was run: as §1

[8] = system: U266B1 multiple myeloma cell line; assay: U266 assay (cell viability, Celltiter-Glo); details: Homo sapiens, U-266; 48 hours, cell viability
Experimental: Cells were plated in 384-well tissue culture plates and treated with compound dilutions in DMSO/media. Plates were incubated at 37° C., 5% CO2 for 48 hours. After 48 hours, Celltiter-Glo@ (Promega) was added to each well and luciferase signal was quantified using Tecan Infinite M1000 Pro for cell viability determination.

Row | Structure (SMILES) | IC50 [1] [µM] | IC50 [2] [µM] | EC50 [3] [µM] | IC50 [4] [µM] | IC50 [5] [µM] | IC50 (HER3ss-Gluc) [µM] | EC50 [6] [µM] | EC50 [7] [µM] | EC50 [8] [µM]
1 | COc1cccc(Cn2cc(C[C@H]3C(=O)N[C@@H](CC(C)C)C(=O)N(C)[C@@H](C)C(=O)O[C@H](CCC#N)C(=O)N[C@@H](CC(C)C)C(=O)N(C)[C@@H](CC(C)C)C(=O)N[C@@H](CC(C)C)C(=O)N3C)c3ccccc32)c1 [C-13] (HELM PEPTIDE1{L.[meA].[N#CCC[C@@H](O[*:1])C(=O)[*:2]].L.[meL].L.[COc1cccc(Cn2cc(C[C@@H](C(=O)[*:2])N(C)[*:1])c3ccccc32)c1]}$PEPTIDE1,PEPTIDE1,1:R1-7:R2$$$V2.0) | 0.03 | 0.118 | 0.83 | 1.9 | 1.03 | 0.069 | 1.36 | 0.192 | 17
2 | CC(C)C[C@@H]1NC(=O)[C@H](Cc2cn(Cc3ccc(Br)cc3)c3ccccc23)N(C)C(=O)[C@H](CC(C)C)NC(=O)[C@H](CC(C)C)N(C)C(=O)[C@H](CC(C)C)NC(=O)[C@@H](CCC#N)OC(=O)[C@H](C)N(C)C1=O [C-14] (HELM PEPTIDE1{L.[meA].[N#CCC[C@@H](O[*:1])C(=O)[*:2]].L.[meL].L.[CN([C@@H](Cc1cn(Cc2ccc(Br)cc2)c2ccccc12)C(=O)[*:2])[*:1]]}$PEPTIDE1,PEPTIDE1,1:R1-7:R2$$$V2.0) | 0.018 | 0.108 | 1.28 | 0.361 | 0.492 | 0.051 | 0.85 | 0.235 | 8
3 | Cc1cc(Cn2cc(C[C@H]3C(=O)N[C@@H](CC(C)C)C(=O)N(C)[C@@H](C)C(=O)O[C@H](CCC#N)C(=O)N[C@@H](CC(C)C)C(=O)N(C)[C@@H](CC(C)C)C(=O)N[C@@H](CC(C)C)C(=O)N3C)c3ccccc32)no1 [C-15] (HELM PEPTIDE1{L.[meA].[N#CCC[C@@H](O[*:1])C(=O)[*:2]].L.[meL].L.[Cc1cc(Cn2cc(C[C@@H](C(=O)[*:2])N(C)[*:1])c3ccccc32)no1]}$PEPTIDE1,PEPTIDE1,1:R1-7:R2$$$V2.0) | 0.475 | 4.7 | 5.93 | 6.45 | 4.01 | 0.284 | 2.62 | 4.86 | 20.2
4 | COc1cc(Cn2cc(C[C@H]3C(=O)N[C@@H](CC(C)C)C(=O)N(C)[C@@H](C)C(=O)O[C@H](CCC#N)C(=O)N[C@@H](CC(C)C)C(=O)N(C)[C@@H](CC(C)C)C(=O)N[C@@H](CC(C)C)C(=O)N3C)c3ccccc32)ccc1F [C-27] (HELM PEPTIDE1{L.[meA].[N#CCC[C@@H](O[*:1])C(=O)[*:2]].L.[meL].L.[COc1cc(Cn2cc(C[C@@H](C(=O)[*:2])N(C)[*:1])c3ccccc32)ccc1F]}$PEPTIDE1,PEPTIDE1,1:R1-7:R2$$$V2.0) | 0.057 | 0.234 | 1.68 | 0.856 | 0.14 | 0.101 | 2.14 | 0.319 | 17.3
5 | Cc1cccc(Cn2cc(C[C@H]3C(=O)N[C@@H](CC(C)C)C(=O)N(C)[C@@H](C)C(=O)O[C@H](CCC#N)C(=O)N[C@@H](CC(C)C)C(=O)N(C)[C@@H](CC(C)C)C(=O)N[C@@H](CC(C)C)C(=O)N3C)c3ccccc32)n1 [C-33] (HELM PEPTIDE1{L.[meA].[N#CCC[C@@H](O[*:1])C(=O)[*:2]].L.[meL].L.[Cc1cccc(Cn2cc(C[C@@H](C(=O)[*:2])N(C)[*:1])c3ccccc32)n1]}$PEPTIDE1,PEPTIDE1,1:R1-7:R2$$$V2.0) | 0.385 | 1.36 | 4.25 | 6.03 | 0.24 | 0.216 | 4.19 | 1.48 | 8.88
